Results: ChEMBL document CHEMBL1201862, “PubChem BioAssay data set” (2004)
Activity calls are given as the source filed them.

Assays:
[1] = target: T1, Carboxy-terminal domain RNA polymerase II polypeptide A small phosphatase 1 (Homo sapiens, UniProt Q9GZU7); assay: inhibitors of CTDSP1, concentration-response testing, biochemical assay, absorbance-based, actives from ultra-high-throughput screening (AID 540297); type: functional
T1 sequence (Q9GZU7 whole entry): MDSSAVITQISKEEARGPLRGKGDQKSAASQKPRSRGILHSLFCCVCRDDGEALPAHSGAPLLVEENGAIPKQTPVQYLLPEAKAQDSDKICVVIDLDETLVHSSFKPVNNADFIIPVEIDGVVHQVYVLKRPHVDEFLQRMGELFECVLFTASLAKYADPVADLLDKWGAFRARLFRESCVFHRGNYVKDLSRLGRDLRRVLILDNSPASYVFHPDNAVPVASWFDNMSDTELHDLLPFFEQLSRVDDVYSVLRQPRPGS

[2] = target: T2, Long-chain-fatty-acid--AMP ligase FadD28 (Mycobacterium tuberculosis, UniProt P9WQ59); assay: Fluorescence polarization aasay to screen for inhibitors that compete for the binding of FadD28 to a bisubstrate Measured in Biochemical System Using Plate Reader - 2147-01_Inhibitor_Dose_CherryPick_Activity.; type: functional, Mycobacterium tuberculosis H37Rv
T2 sequence (P9WQ59 whole entry): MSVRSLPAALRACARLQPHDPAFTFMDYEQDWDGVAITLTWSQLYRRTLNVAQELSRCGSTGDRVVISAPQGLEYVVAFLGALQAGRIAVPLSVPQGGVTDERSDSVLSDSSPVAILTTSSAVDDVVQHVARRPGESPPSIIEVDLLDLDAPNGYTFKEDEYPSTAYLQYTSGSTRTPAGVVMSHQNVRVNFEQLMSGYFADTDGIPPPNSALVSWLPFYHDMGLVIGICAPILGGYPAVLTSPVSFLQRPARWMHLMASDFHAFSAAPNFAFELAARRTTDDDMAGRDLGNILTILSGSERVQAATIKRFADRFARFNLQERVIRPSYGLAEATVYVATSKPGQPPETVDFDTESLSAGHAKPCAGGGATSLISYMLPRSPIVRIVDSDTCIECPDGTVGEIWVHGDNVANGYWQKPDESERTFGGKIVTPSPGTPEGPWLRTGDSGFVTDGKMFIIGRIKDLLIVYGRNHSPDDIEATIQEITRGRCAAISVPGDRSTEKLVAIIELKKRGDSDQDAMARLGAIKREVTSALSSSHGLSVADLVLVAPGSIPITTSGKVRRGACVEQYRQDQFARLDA

[3] = target: T3, Adenosylmethionine-8-amino-7-oxononanoate aminotransferase (Mycobacterium tuberculosis, UniProt P9WQ81); assay: Mycobacterium tuberculosis BioA enzyme inhibitor Measured in Biochemical System Using Plate Reader - 2163-02_Inhibitor_Dose_CherryPick_Activity.; type: functional, Mycobacterium tuberculosis UT205
T3 sequence (P9WQ81 whole entry): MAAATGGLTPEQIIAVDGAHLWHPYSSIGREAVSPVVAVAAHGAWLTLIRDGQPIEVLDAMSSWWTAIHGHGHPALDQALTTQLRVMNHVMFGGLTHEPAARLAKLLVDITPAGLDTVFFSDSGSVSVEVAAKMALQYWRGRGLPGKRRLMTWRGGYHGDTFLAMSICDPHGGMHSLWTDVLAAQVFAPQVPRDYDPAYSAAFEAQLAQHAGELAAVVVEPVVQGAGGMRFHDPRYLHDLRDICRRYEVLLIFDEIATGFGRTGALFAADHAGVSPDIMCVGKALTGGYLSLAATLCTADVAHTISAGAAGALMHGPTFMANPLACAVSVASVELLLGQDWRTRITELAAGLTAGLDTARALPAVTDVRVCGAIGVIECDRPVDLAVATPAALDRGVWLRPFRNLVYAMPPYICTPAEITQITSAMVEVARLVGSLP

BJ [4] = assay: cytotoxicity toward BJ-TERT fibroblasts, dose response, cell-based, RAS-independent, luminescence (AID 1933); type: functional; conditions: Homo sapiens
BJ [5] = assay: cells; type: functional, cell-based; conditions: Homo sapiens
[6] = growth suppression of PTEN-null colon cells, dose response, cell-based, HCT116 PTEN knockout (AID 1047); type: functional;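 note: HCT116 colon tumor cells with PTEN knocked out; cells exposed to compound for 60 hours before readout; potency for loss of cell viability measured by luminescence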
[7] = growth suppression of beta-catenin-knockout colon cells, dose response, cell-based, HCT116, human colon tumor (AID 1045); type: functional;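 note: HCT116 colon tumor cells with beta catenin knocked out; cells exposed to compound for 60 hours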
BJ [8] = assay: cytotoxicity toward BJ-TERT-LT-ST fibroblasts, dose response, cell-based, RAS-independent, luminescence (AID 1935); type: functional; conditions: Homo sapiens;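 note: BJ fibroblasts immortalized with TERT plus LT and ST oncogenes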
[9] = cytotoxicity toward DRD oncogenic fibroblasts, dose response, cell-based, non-viral oncogenic, luminescence (AID 1934); type: functional; conditions: Homo sapiens
[10] = target: Induced myeloid leukemia cell differentiation protein Mcl-1 (Homo sapiens, UniProt Q07820); type: functional
Induced myeloid leukemia cell differentiation protein Mcl-1, sequence (Q07820 whole entry): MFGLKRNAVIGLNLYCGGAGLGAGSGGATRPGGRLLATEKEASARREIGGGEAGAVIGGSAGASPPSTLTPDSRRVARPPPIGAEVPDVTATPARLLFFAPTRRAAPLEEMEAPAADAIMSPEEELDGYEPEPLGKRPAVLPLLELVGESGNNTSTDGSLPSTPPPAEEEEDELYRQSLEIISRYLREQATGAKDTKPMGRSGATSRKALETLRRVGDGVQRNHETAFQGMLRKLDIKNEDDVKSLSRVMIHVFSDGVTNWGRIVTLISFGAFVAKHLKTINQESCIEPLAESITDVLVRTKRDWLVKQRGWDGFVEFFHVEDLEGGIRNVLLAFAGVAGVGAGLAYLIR

BJ [11] = assay: cytotoxicity toward Ras-transformed BJeLR fibroblasts, dose response, cell-based, alamar blue fluorescence, cherrypicked samples (AID 2631); type: functional; conditions: Homo sapiens;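 note: confirmatory dose-response assay in RAS-dependent BJ fibroblasts engineered with TERT, LT and ST, with cytotoxicity read by fluorescence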
[12] = target: T4, Corticotropin-releasing factor receptor 2/Corticotropin-releasing factor-binding protein (Homo sapiens, UniProt P24387+Q13324); assay: Dose Response confirmation of uHTS hits for small molecule antagonists of the CRF-binding protein and CRF-R2 receptor complex.; type: functional; conditions: read-out: IC50_Mean
T4 sequence (Q13324 whole entry): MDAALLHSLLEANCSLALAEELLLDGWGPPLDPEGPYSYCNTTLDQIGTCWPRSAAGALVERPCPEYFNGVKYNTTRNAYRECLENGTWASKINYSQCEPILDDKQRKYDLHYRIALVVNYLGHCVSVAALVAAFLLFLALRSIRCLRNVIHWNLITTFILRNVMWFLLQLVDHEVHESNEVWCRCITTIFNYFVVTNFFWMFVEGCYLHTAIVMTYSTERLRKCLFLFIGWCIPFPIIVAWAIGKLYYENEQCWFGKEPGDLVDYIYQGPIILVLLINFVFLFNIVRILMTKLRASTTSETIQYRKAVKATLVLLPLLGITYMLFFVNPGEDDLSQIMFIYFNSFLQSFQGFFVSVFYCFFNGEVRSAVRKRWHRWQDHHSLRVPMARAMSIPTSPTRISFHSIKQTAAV
T4 sequence (P24387 whole entry): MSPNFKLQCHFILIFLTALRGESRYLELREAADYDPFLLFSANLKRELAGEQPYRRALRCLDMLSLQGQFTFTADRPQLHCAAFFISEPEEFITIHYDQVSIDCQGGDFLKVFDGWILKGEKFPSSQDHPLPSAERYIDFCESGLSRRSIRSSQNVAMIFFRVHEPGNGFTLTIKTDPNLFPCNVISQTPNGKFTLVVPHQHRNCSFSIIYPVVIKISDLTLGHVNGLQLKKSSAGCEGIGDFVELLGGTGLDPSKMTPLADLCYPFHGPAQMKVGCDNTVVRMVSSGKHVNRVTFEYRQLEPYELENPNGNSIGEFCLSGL

[13] = target: T4, Corticotropin-releasing factor receptor 2/Corticotropin-releasing factor-binding protein; assay: activators of CRF receptor 2 with binding protein – uHTS hits, confirmation (AID 602473); type: functional; conditions: read-out: EC50_Mean
[14] = CRF-BP/CRF-R2 complex antagonists, dose response, cell-based, uHTS hits, 384-well (AID 651639); type: functional, Homo sapiens; conditions: read-out: IC50_Mean
[15] = target: FAD-linked sulfhydryl oxidase ALR (Homo sapiens, UniProt P55789); assay: inhibitors of human ALR sulfhydryl oxidase, dose response, biochemical, H2O2 detection, luminescence, cherry-pick (AID 493248)
FAD-linked sulfhydryl oxidase ALR, sequence (P55789 whole entry): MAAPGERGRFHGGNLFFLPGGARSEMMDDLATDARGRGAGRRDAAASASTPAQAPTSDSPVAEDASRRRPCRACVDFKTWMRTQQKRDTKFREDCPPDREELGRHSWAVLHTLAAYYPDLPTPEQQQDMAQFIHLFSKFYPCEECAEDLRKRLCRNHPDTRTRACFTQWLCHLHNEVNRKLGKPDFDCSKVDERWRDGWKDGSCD

[16] = microbe, parasite or virus in culture; type: functional; conditions: Mycobacterium tuberculosis
[17] = target: T5, Replicative DNA helicase DnaB (Mycobacterium tuberculosis, UniProt P9WMR3); assay: DnaB intein splicing inhibitors, dose response, biochemical, cell-free fluorescence (AID 449749); type: functional
T5 sequence (P9WMR3 whole entry): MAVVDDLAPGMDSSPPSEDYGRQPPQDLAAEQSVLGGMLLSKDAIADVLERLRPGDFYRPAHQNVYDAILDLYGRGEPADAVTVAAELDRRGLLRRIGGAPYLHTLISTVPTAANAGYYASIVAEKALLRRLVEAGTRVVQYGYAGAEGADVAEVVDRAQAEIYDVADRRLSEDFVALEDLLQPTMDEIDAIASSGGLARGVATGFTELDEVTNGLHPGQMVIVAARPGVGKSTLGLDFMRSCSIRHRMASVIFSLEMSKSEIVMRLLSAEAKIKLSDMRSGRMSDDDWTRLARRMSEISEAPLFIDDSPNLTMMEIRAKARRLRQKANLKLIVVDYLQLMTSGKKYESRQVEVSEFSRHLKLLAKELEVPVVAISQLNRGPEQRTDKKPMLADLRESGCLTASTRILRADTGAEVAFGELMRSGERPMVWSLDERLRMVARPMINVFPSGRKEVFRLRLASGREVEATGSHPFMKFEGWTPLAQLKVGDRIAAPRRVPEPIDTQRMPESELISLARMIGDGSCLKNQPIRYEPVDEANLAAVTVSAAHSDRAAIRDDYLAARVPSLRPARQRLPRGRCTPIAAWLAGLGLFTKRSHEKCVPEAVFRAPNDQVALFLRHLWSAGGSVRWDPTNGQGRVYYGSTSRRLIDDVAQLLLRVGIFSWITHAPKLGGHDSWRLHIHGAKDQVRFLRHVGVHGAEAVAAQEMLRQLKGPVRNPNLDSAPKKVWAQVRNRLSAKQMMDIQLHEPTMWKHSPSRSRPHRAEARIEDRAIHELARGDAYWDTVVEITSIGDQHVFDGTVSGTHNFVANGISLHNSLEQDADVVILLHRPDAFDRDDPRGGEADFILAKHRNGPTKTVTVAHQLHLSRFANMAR

Protein RecA = target: T6, Protein RecA (Mycobacterium tuberculosis, UniProt P9WHJ3); assay: Fluorescence Cell-Free Homogeneous Dose Retest to Identify Inhibitors of RecA-Intein Splicing Activity. [Related pubchem assays (depositor defined):AID2097, AID2223, AID489010, AID492950]; type: functional
T6 sequence (P9WHJ3 whole entry): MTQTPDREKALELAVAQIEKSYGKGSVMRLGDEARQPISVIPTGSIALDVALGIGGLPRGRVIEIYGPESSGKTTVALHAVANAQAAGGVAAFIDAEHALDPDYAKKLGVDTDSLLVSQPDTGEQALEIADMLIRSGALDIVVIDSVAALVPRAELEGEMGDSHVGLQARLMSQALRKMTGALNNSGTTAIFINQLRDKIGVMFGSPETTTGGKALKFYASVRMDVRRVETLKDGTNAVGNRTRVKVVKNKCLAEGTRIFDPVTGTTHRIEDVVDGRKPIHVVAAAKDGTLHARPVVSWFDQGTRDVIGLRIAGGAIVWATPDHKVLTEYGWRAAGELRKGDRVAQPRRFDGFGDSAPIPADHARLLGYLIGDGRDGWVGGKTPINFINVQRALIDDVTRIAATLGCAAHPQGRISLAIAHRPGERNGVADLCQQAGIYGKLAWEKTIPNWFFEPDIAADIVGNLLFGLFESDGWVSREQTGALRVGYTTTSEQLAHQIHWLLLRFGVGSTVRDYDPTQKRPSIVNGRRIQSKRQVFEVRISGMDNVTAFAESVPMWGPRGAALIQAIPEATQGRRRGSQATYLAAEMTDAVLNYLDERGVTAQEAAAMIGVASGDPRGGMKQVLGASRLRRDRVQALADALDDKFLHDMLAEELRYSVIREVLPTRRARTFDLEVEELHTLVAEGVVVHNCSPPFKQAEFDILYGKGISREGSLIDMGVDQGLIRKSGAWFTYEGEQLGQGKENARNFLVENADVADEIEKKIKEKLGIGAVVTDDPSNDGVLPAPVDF

In the case of `Cc1cccc(NC(=O)CN2C(=O)S/C(=C\c3ccc(O)c([N+](=O)[O-])c3)C2=O)c1`, the IC50 [1] is reported as 3.43 µM (active) and the AC50 [2] is reported as 0.102 µM (active).
For `Cc1cc(C(=O)CSc2nncs2)c(C)n1-c1ccc2c(c1)OCO2`, the AC50 [3] was 1.67 µM (active).
For `CCOc1ccccc1Nc1nc(-c2sc(NC(=O)c3ccc([N+](=O)[O-])cc3)nc2C)cs1`, the EC50 (BJ [4]) was 7.64 µM (active), the EC50 (BJ [5]) was 12.7 µM (active) and the EC50 [6] was 9.09 µM (active). For the same compound, the EC50 [7] was 7.38 µM (active), the EC50 (BJ [8]) was > 150 µM (inconclusive) and the EC50 [9] was 7.92 µM (active). The IC50 [10] was 13.4 µM (active) and the EC50 (BJ [11]) was > 133 µM (inactive).
With `CCc1nnc(NS(=O)(=O)c2ccc(NC(=O)Nc3ccc(OC)cc3)cc2)s1` the AC50 [2] was 73.5 µM (active).
With `CCC(c1nnnn1C1CCCC1)N1CCN(Cc2ccccc2)CC1` (stereo unspecified) the IC50 [12] was < 368 nM (active), the EC50 [13] was > 53 µM (inactive) and the IC50 [14] was > 20 µM (inactive).
In the case of `COc1ccc(NC2c3ccccc3C(=O)N2c2cccnc2)cc1Cl` (stereo unspecified), the AC50 [15] is reported as 4.34 µM (active) and the AC50 [3] is reported as 4.04 µM (active).
With `O=C(COC(=O)c1ccc(O)cc1O)Nc1cccc2ccccc12` the AC50 [2] was > 100 µM (inactive).
For `Cc1ccc(C2CC(c3cccs3)=NN2C(=O)CCl)cc1` (stereo unspecified), the EC50 (BJ [4]) was 0.911 µM (active), the EC50 (BJ [5]) was 5.54 µM (active) and the CC50 [16] was 2.24 µM (active). The EC50 (BJ [8]) was 6 µM (active), the EC50 [9] was 5.15 µM (inconclusive) and the AC50 [17] was 1.23 µM (active). For the same compound, the EC50 (BJ [11]) was 2.87 µM (active) and the EC50 (Protein RecA) was 943 nM (active).
